Patent publication US8299083B2, “PDE5 inhibitor compositions and methods for treating cardiac indications” (The Johns Hopkins University, priority 2004, dated 2012)

Assays:
[1] = tested on: healthy human volunteers, dobutamine-stimulated cardiac function; experiment: Dobutamine stress test before and after oral study drug, randomized double-blind placebo-controlled; type: in vivo
Source text: Forty healthy volunteers were recruited from the general population in response to advertisements posted in the surrounding community. Subjects were screened by medical history, physical examination, and transthoracic echocardiogram. Individuals with heart disease, atherosclerosis, hypertension, diabetes mellitus, pulmonary hypertension, renal or hepatic disease, smoking, pregnancy, or under treatment with nitrates, adrenergic-blocking drugs, or medicines known to interfere with sildenafil pharmacokinetics were excluded. […] All subjects were instructed to fast for >6 hours prior to study. […] Intravenous dobutamine (5 μg/kg/min) was then administered for 5 minutes to achieve a stable response, and measurements repeated (D1). Dobutamine was discontinued, and 15 minutes provided to return to the baseline state. […] Data were again recorded for a second baseline (B2), and during a second dobutamine infusion (D2) using the identical protocol as for the first test. Systolic function was determined by cardiac-specific indexes that combined measurements of pressure, dimension, and flow. Arterial pressure was determined by an oscillometric arm cuff ([…] 2-dimensional echo-Doppler measurements by an Agilent Sonos 5500 (Philips, The Netherlands) employing a 3 MHz probe. All echo-Doppler measurements were digitally acquired to optical disc and analyzed offline by a single blinded investigator. Each measurement reflected the average of at least 3 separate beats. Aortic flow was equal to the velocity time-integral from pulse-wave Doppler in the left ventricular outflow tract multiplied by cross sectional […].^83 Stroke volume, peak, and mean flow were determined from this waveform. Cardiac output was the product of heart rate and stroke volume. Systemic vascular resistance was the ratio of mean arterial pressure (1⁄3 pulse pressure+diastolic blood pressure) to cardiac output. Cardiac contractility was assessed by several load-independent indexes. […] Load-independent secondary outcome contractility parameters were mean ventricular power index and the end-systolic pressure/volume ratio, an approximation for ventricular end systolic elastance. Other secondary outcome variables included routine measures of cardiac systolic and diastolic function. Ejection fraction was determined from cardiac end-diastolic and systolic volumes determined by Simpson's method using apical 4- and 2-chamber views. End-diastolic volume was equal to stroke volume (from Doppler) divided by ejection fraction, with end-systolic volume equal to the difference of the former and latter. Pulse-wave Doppler spectra of transmittal inflow and tissue Doppler imaging of the lateral mitral annular (E') velocities were used to assess diastolic function.^89 The ratio of E/E' was determined as a surrogate marker of left ventricular filling pressures as previously validated^90. Isovolumic relaxation time was measured by continuous wave Doppler as the time between aortic flow cessation and onset of mitral inflow. All statistical analysis was performed using Systat® software. Results are expressed as mean±standard deviation. […] The primary test was a test between group analysis of whether sildenafil (versus placebo) altered the disparity between the first and second dobutamine response, and determined by a three-way interaction term that included each grouping factor. […] Within group analysis was also performed using a 2-tailed Student's paired t-test to assess individual dobutamine responses ([…]2), and a 2-way ANOVA to test whether study drug altered this response within in each group. Categorical variables were compared using the Chi-squared test.

NFAT = NFAT promoter activation in neonatal rat myocytes (β-galactosidase / luciferase reporter); type: cell-based; details: stimulated by PE or BayK8644, 1 μM sildenafil
Experimental: Rat neonatal cardiac myocytes were isolated from 1- to 2-day-old Sprague-Dawley rats as described^50. […] Sigma Chemical (St. […] To assess NFAT activation, cells were transfected with adenovirus expressing the three NFAT-binding sites linked to β-galactosidase ([…]), using previously described methods^72. Additional studies were performed using an alternative reporter adenovirus encoding luciferase driven by the NFAT promoter. This was performed twenty-four hours prior to PE, BayK8644, or activated calcineurin stimulation. The latter was achieved by a co-transfection with a replication-deficient adenovirus encoding a Ca^2+-independent, constitutively active, truncated mouse calcineurin […]^72). […] After an additional forty-eight hours, NFAT activation was assessed by β-galactosidase histology/activity or luciferase activity. […] Luciferase activity was assayed by commercial kit (Stratagene, La Jolla, Calif.) and read on a plate luminometer.

NOS3 = NOS3 dimer/monomer Western blot in TAC hearts; type: in vivo, mouse; details: 3 weeks TAC
[2] = dobutamine-induced change after sildenafil
[3] = resting baseline after vs before 100 mg oral sildenafil
[4] = second versus initial dobutamine response

CCCc1nn(C)c2c(=O)[nH]c(-c3cc(S(=O)(=O)N4CCN(C)CC4)ccc3OCC)nc12 [sildenafil]
dobutamine-induced change in ventricular end-systolic elastance ([1]; after sildenafil 100 mg oral): 0.84±0.9 mmHg/ml
dobutamine-induced increase in ejection fraction (absolute change) ([1]; after sildenafil 100 mg oral): 4±5%
dobutamine-induced increase in heart rate ([1]; after sildenafil 100 mg oral): +14.5±4.7 bpm
dobutamine-mediated drop in peripheral resistance ([1]; after sildenafil 100 mg oral): not modified
diastolic changes induced by dobutamine ([1]; compared to placebo): did not significantly alter diastolic changes induced by dobutamine
A velocity, D2 − B2 [1, 2]: 11 ± 7 cm/s
E velocity, D2 − B2 [1, 2]: 12 ± 11 cm/s
E′ velocity, D2 − B2 [1, 2]: 1.5 ± 2.4 cm/s
IVRT, D2 − B2 [1, 2]: −20 ± 13
A velocity, Δ(B2 − B1) [1, 3]: -3 ± 8 cm/s
Diastolic Blood Pressure, Δ(B2 − B1) [1, 3]: −6 ± 5 mmHg
E velocity, Δ(B2 − B1) [1, 3]: -4 ± 12 cm/s
Ejection Fraction, Δ(B2 − B1) [1, 3]: +6 ± 2
End Systolic Elastance, Δ(B2 − B1) [1, 3]: +0.4 ± 0.2 mmHg/mL
E′ velocity, Δ(B2 − B1) [1, 3]: +0 ± 3 cm/sec
Heart Rate, Δ(B2 − B1) [1, 3]: +0 ± 3 min^−1
IVRT, Δ(B2 − B1) [1, 3]: +8 ± 12 msec
Stroke Volume, Δ(B2 − B1) [1, 3]: +5 ± 6 mL
Systolic Blood Pressure, Δ(B2 − B1) [1, 3]: −6 ± 3 mmHg
Total Peripheral Resistance, Δ(B2 − B1) [1, 3]: −170 ± 60 dyne * s/cm^5
reduction of dobutamine-induced ejection fraction change [1, 4]: 66±64%
reduction of dobutamine-induced end-systolic elastance change [1, 4]: 56±63%
reduction of dobutamine-induced peak power change [1, 4]: 32±34%
adverse events ([1]; single 100 mg oral dose, healthy volunteers): no adverse events
NFAT promoter activation (NFAT): suppressed activation
NOS3 dimer (280 kD) level (NOS3): prevented the loss of NOS dimer
